Data published in patent US10759783B2, “Biaryl inhibitors of Bruton'S tyrosine kinase” (BIOGEN MA INC., priority 2013, dated 2020).

Assays:
BTK enzyme = biological target: T1, BTK enzyme (Homo sapiens, UniProt Q06187); assay: In vitro BTK kinase assay: BTK-POLYGAT-LS assay; type: biochemical; settings: ATP 10 μM, read-out: IC50 (10uMATP)
T1 construct: purchased Upstate 14-552
Method in brief: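 Human BTK activity was measured with final 10 μM ATP and 100 nM polyGAT substrate in pH 7.5 Tris buffer with 10 mM MgCl2, DTT, Triton X-100 and casein.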

[1] = biological target: BTK (phospho-BTK) in human whole blood (Homo sapiens, UniProt Q06187); assay: In vitro PD assay in human whole blood (pBTK assay)
Sequence of BTK (phospho-BTK) in human whole blood (Q06187 whole entry): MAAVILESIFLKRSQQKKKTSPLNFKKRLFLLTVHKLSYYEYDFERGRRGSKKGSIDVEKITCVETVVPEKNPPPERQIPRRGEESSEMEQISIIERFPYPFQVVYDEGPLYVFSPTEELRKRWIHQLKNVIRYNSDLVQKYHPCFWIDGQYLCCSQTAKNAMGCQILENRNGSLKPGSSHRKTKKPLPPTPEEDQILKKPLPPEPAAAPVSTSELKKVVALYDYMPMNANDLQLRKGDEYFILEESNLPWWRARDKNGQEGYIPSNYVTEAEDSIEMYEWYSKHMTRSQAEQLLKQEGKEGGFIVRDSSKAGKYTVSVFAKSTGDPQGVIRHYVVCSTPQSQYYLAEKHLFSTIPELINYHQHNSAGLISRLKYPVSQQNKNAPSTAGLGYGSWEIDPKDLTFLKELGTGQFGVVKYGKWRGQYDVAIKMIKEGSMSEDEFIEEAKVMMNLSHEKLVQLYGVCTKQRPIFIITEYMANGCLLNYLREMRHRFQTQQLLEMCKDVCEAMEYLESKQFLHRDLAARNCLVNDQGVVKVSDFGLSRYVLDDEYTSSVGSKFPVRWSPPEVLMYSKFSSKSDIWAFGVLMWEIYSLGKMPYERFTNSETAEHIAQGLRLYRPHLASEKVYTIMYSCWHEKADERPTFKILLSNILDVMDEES

T1 sequence (Q06187 whole entry): as above

Cc1cc(-c2cc(Nc3cc4n(n3)CCCNC4)ncn2)ccc1CNC(=O)c1cnn(C(C)(C)C)c1 [Example I-234, 1-(tert-butyl)-N-(2-methyl-4-(6-((5,6,7,8-tetrahydro-4H-pyrazolo[1,5-a][1,4]diazepin-2-yl)amino)pyrimidin-4-yl)benzyl)-1H-pyrazole-4-carboxamide]
IC50 (BTK enzyme): < 0.01 µM
IC50 [1]: < 0.5 µM

CCN1CCn2nc(Nc3nccc(-c4ccc(CNC(=O)c5cnc(C(C)(C)C)s5)c(C)c4)n3)cc2C1 [Example I-56, 2-(tert-butyl)-N-(4-(2-((5-ethyl-4,5,6,7-tetrahydropyrazolo[1,5-a]pyrazin-2-yl)amino)pyrimidin-4-yl)-2-methylbenzyl)thiazole-5-carboxamide]
IC50 (BTK enzyme): < 0.01 µM
IC50 [1]: 0.5 to 1.5 µM

CC(C)n1cc(Nc2nccc(-c3ccc(CNC(=O)N4CCC(C(C)(C)C)C4)c(C(F)(F)F)c3)n2)cn1 (stereo not shown) [Example I-293, 3-tert-butyl-N-[[4-[2-[(1-isopropylpyrazol-4-yl)amino]pyrimidin-4-yl]-2-(trifluoromethyl)phenyl]methyl]pyrrolidine-1-carboxamide]
IC50 (BTK enzyme): < 0.01 µM
IC50 [1]: < 0.5 µM

CC(C)(C)OC1CN(C(=O)NCc2ccc(-c3ccnc(Nc4cnn(CCO)c4)n3)cc2C(F)(F)F)C1 [Example I-205, 3-(tert-butoxy)-N-(4-(2-((1-(2-hydroxyethyl)-1H-pyrazol-4-yl)amino)pyrimidin-4-yl)-2-(trifluoromethyl)benzyl)azetidine-1-carboxamide]
IC50 (BTK enzyme): < 0.01 µM
IC50 [1]: < 0.5 µM

COCCn1cc(Nc2nccc(-c3ccc4c(c3)CCCCC4NC(=O)N3CCC(C(C)C)C3)n2)cn1 (stereo not shown) [Example I-183, 3-Isopropyl-N-(2-(2-((1-(2-methoxyethyl)-1H-pyrazol-4-yl)amino)pyrimidin-4-yl)-6,7,8,9-tetrahydro-5H-benzo[7]annulen-5-yl)pyrrolidine-1-carboxamide]
IC50 (BTK enzyme): < 0.01 µM
IC50 [1]: < 0.5 µM

CC(C)(C)OC1CN(C(=O)NC2CCCCc3cc(-c4ccnc(Nc5cnn(C6CCNCC6)c5)n4)ccc32)C1 (stereo not shown) [Example I-343, 3-tert-butoxy-N-[2-[2-[[1-(4-piperidyl)pyrazol-4-yl]amino]pyrimidin-4-yl]-6,7,8,9-tetrahydro-5H-benzo[7]annulen-5-yl]azetidine-1-carboxamide]
IC50 (BTK enzyme): < 0.01 µM
IC50 [1]: < 0.5 µM

[2H]C([2H])([2H])n1cc(Nc2cc(-c3ccc(CNC(=O)N4CC(OC(C)C)C4)c(C)c3)ncn2)cn1 [Example I-243, 3-isopropoxy-N-(2-methyl-4-(6-((1-d3-methyl-1H-pyrazol-4-yl)amino)pyrimidin-4-yl)benzyl)azetidine-1-carboxamide]
IC50 (BTK enzyme): < 0.01 µM
IC50 [1]: < 0.5 µM

COCCn1cc(Nc2nccc(-c3ccc(CNC(=O)N4CC(OC(C)C)C4)c(C)c3)n2)cn1 [Example I-213, 3-isopropoxy-N-(4-(2-((1-(2-methoxyethyl)-1H-pyrazol-4-yl)amino)pyrimidin-4-yl)-2-methylbenzyl)azetidine-1-carboxamide]
IC50 (BTK enzyme): < 0.01 µM
IC50 [1]: < 0.5 µM

CCn1cc(Nc2nccc(-c3ccc(CNC(=O)N4CC(OC(C)(C)C)C4)c(C)c3)n2)cn1 [Example I-216, 3-(tert-butoxy)-N-(4-(2-((1-ethyl-1H-pyrazol-4-yl)amino)pyrimidin-4-yl)-2-methylbenzyl)azetidine-1-carboxamide]
IC50 (BTK enzyme): < 0.01 µM
IC50 [1]: < 0.5 µM

Cc1cc(-c2cc(Nc3ccc(N4CCN(C)CC4)cn3)ncn2)ccc1CNC(=O)c1cnn(C(C)(C)C)c1 [Example I-225, 1-(tert-butyl)-N-(2-methyl-4-(6-((5-(4-methylpiperazin-1-yl)pyridin-2-yl)amino)pyrimidin-4-yl)benzyl)-1H-pyrazole-4-carboxamide]
IC50 (BTK enzyme): < 0.01 µM
IC50 [1]: < 0.5 µM

Cc1cc(-c2ccnc(Nc3cnn(C[C@H](O)CN)c3)n2)ccc1CNC(=O)c1cnc(C(C)(C)C)s1 [Example I-127, (R)—N-(4-(2-((1-(3-amino-2-hydroxypropyl)-1H-pyrazol-4-yl)amino)pyrimidin-4-yl)-2-methylbenzyl)-2-(tert-butyl)thiazole-5-carboxamide]
IC50 (BTK enzyme): < 0.01 µM
IC50 [1]: 0.5 to 1.5 µM

Cc1cc(-c2ccnc(Nc3cn(C)nc3C)n2)ccc1CNC(=O)c1cnc(C(C)(C)C)s1 [Example I-51, 2-(tert-butyl)-N-(4-(2-((1,3-dimethyl-1H-pyrazol-4-yl)amino)pyrimidin-4-yl)-2-methylbenzyl)thiazole-5-carboxamide]
IC50 (BTK enzyme): < 0.01 µM
IC50 [1]: 0.5 to 1.5 µM

CN1CCC(n2cc(Nc3nccc(-c4ccc(CNC(=O)N5CCC(C(C)(C)C)C5)c(C(F)(F)F)c4)n3)cn2)CC1 (stereo not shown) [Example I-298, 3-tert-butyl-N-[[4-[2-[[1-(1-methyl-4-piperidyl)pyrazol-4-yl]amino]pyrimidin-4-yl]-2-(trifluoromethyl)phenyl]methyl]pyrrolidine-1-carboxamide]
IC50 (BTK enzyme): < 0.01 µM
IC50 [1]: < 0.5 µM

Cc1cc(-c2ccnc(Nc3cnn(CCO)c3)n2)ccc1CNC(=O)N1CC(OC(C)(C)C)C1 [Example I-214, 3-(tert-butoxy)-N-(4-(2-((1-(2-hydroxyethyl)-1H-pyrazol-4-yl)amino)pyrimidin-4-yl)-2-methylbenzyl)azetidine-1-carboxamide]
IC50 (BTK enzyme): < 0.01 µM
IC50 [1]: < 0.5 µM

CC(C)(C)OC1CN(C(=O)N[C@@H]2CCCCc3cc(-c4ccnc(Nc5cnn(CCO)c5)n4)ccc32)C1 [Example I-229, (R)-3-(tert-butoxy)-N-(2-(2-((1-(2-hydroxyethyl)-1H-pyrazol-4-yl)amino)-pyrimidin-4-yl)-6,7,8,9-tetrahydro-5H-benzo[7]annulen-5-yl)azetidine-1-carboxamide]
IC50 (BTK enzyme): < 0.01 µM
IC50 [1]: < 0.5 µM

COCCn1cc(Nc2nccc(-c3ccc4c(c3)CCCCC4NC(=O)N3CC(OC(C)C)C3)n2)cn1 (stereo not shown) [Example I-171, 3-isopropoxy-N-(2-(2-((1-(2-methoxyethyl)-1H-pyrazol-4-yl)amino)pyrimidin-4-yl)-6,7,8,9-tetrahydro-5H-benzo[7]annulen-5-yl)azetidine-1-carboxamide]
IC50 (BTK enzyme): < 0.01 µM
IC50 [1]: < 0.5 µM

CC(C)(O)Cn1cc(Nc2nccc(-c3ccc4c(c3)CCCCC4NC(=O)N3CC(OC(C)(C)C)C3)n2)cn1 (stereo not shown) [Example I-337, 3-tert-butoxy-N-[2-[2-[[1-(2-hydroxy-2-methyl-propyl)pyrazol-4-yl]amino]pyrimidin-4-yl]-6,7,8,9-tetrahydro-5H-benzo[7]annulen-5-yl]azetidine-1-carboxamide]
IC50 (BTK enzyme): < 0.01 µM
IC50 [1]: < 0.5 µM

CC(C)C1CCN(C(=O)NC2CCCCc3cc(-c4ccnc(Nc5cnn(C6CCOCC6)c5)n4)ccc32)C1 (stereo not shown) [Example I-342, 3-isopropyl-N-[2-[2-[(1-tetrahydropyran-4-ylpyrazol-4-yl)amino]pyrimidin-4-yl]-6,7,8,9-tetrahydro-5H-benzo[7]annulen-5-yl]pyrrolidine-1-carboxamide]
IC50 (BTK enzyme): < 0.01 µM
IC50 [1]: < 0.5 µM

Cc1cc(-c2ccnc(Nc3cnn(C4CCN(C)CC4)c3)n2)ccc1CNC(=O)N1CC(OC(C)(C)C)C1 [Example I-302, 3-tert-butoxy-N-[[2-methyl-4-[2-[[1-(1-methyl-4-piperidyl)pyrazol-4-yl]amino]pyrimidin-4-yl]phenyl]methyl]azetidine-1-carboxamide]
IC50 (BTK enzyme): < 0.01 µM
IC50 [1]: < 0.5 µM

Cc1cc(-c2ccnc(Nc3cnn4c3CCC4)n2)ccc1CNC(=O)c1cnc(C(C)(C)C)s1 [Example I-315, 2-tert-butyl-N-[[4-[2-(5,6-dihydro-4H-pyrrolo[1,2-b]pyrazol-3-ylamino)pyrimidin-4-yl]-2-methyl-phenyl]methyl]thiazole-5-carboxamide]
IC50 (BTK enzyme): < 0.01 µM
IC50 [1]: < 0.5 µM

CC(C)(C)OC1CN(C(=O)NC2CCCCc3cc(-c4cc(Nc5cc6n(n5)CCOC6)ncn4)ccc32)C1 (stereo not shown) [Example I-332, 3-tert-butoxy-N-[2-[6-(6,7-dihydro-4H-pyrazolo[5,1-c][1,4]oxazin-2-ylamino)pyrimidin-4-yl]-6,7,8,9-tetrahydro-5H-benzo[7]annulen-5-yl]azetidine-1-carboxamide]
IC50 (BTK enzyme): < 0.01 µM
IC50 [1]: < 0.5 µM

Cc1cc(-c2ccnc(Nc3cnn(C4CCOCC4)c3)n2)ccc1CNC(=O)c1cnc(C(C)(C)C)s1 [Example I-38, 2-(tert-butyl)-N-(2-methyl-4-(2-((1-(tetrahydro-2H-pyran-4-yl)-1H-pyrazol-4-yl)amino)pyrimidin-4-yl)benzyl)thiazole-5-carboxamide]
IC50 (BTK enzyme): < 0.01 µM
IC50 [1]: 0.5 to 1.5 µM

CN1CC(n2cc(Nc3nccc(-c4ccc(CNC(=O)c5cc(C(C)(C)C)on5)c(C(F)(F)F)c4)n3)cn2)C1 [Example I-355, 5-tert-butyl-N-[[4-[2-[[1-(1-methylazetidin-3-yl)pyrazol-4-yl]amino]pyrimidin-4-yl]-2-(trifluoromethyl)phenyl]methyl]isoxazole-3-carboxamide]
IC50 (BTK enzyme): < 0.01 µM
IC50 [1]: < 0.5 µM

Cc1cc(-c2ccnc(Nc3cn[nH]c3)n2)ccc1CNC(=O)c1cnc(C(C)(C)C)s1 [Example I-36, N-(4-(2-((1H-pyrazol-4-yl)amino)pyrimidin-4-yl)-2-methylbenzyl)-2-(tert-butyl)thiazole-5-carboxamide]
IC50 (BTK enzyme): < 0.01 µM
IC50 [1]: < 0.5 µM

Cc1cc(-c2ccnc(Nc3cnn(C)c3C)n2)ccc1CNC(=O)c1cnc(C(C)(C)C)s1 [Example I-52, 2-(tert-butyl)-N-(4-(2-((1,5-dimethyl-1H-pyrazol-4-yl)amino)pyrimidin-4-yl)-2-methylbenzyl)thiazole-5-carboxamide]
IC50 (BTK enzyme): < 0.01 µM
IC50 [1]: < 0.5 µM

CC(C)OC1CN(C(=O)NCc2ccc(-c3ccnc(Nc4cnn(C(C)C)c4)n3)cc2C(F)(F)F)C1 [Example I-299, 3-isopropoxy-N-[[4-[2-[(1-isopropylpyrazol-4-yl)amino]pyrimidin-4-yl]-2-(trifluoromethyl)phenyl]methyl]azetidine-1-carboxamide]
IC50 (BTK enzyme): < 0.01 µM
IC50 [1]: < 0.5 µM
